Measurements published in patent publication US20260356839A1, “DIRECT SYNTHESIS OF N-(3-SUBSTITUTED-CHROMAN-4-YL)-7H- PYRROLO[2,3-D]PYRIMIDIN-4-AMINES AND DERIVATIVES THEREOF” (MITOKININ, INC., priority 2022, published 2026).

Assays:
Format in all cases: cell-based
[1] = tested on: HeLa cells expressing mt-Keima and YFP-Parkin (HeLa MKYP); test: Human mt-Keima Mitophagy Assay; details: 16 hrs compound, then 1 μM FCCP/oligomycin for 6 hours, read-out: Mitophagy induction EC50
Protocol: (§1) HeLa cells expressing mt-Keima and YFP-Parkin (HeLa MKYP) were plated at 10,000 cells/well in 96 well plates along with Mitokinin compounds at various concentrations. Following 16 hrs of incubation, cells were treated with 1 μM FCCP/oligomycin for 6 hours, then analyzed via FACS for the presence of mitochondria in lysosomes (as determined by an emissions spectrum shift from the pH-sensitive mt-Keima tag). Additionally, cells treated with 25 μM Mitokinin compound but not treated with FCCP/oligomycin were analyzed for cytotoxicity.
The above compound was prepared using the synthetic methods detailed herein, and evaluated for PINK1 activity. Additional exemplary PINK1 modulators for which the synthetic methods described herein can be used are described in WO 2021/168446

[2] = Cytotoxicity in the mt-Keima assay cells (FACS, DAPI); details: human, hela mkyp cells
Protocol: as §1

[3] = In Vitro Mitotoxicity (glucose/galactose) Assay; details: human, skov3 cells
Protocol: Briefly, SKOV3 cells (ATCC HTB-77) were plated in DMEM (Corning 10-013-CV) medium containing 25 mM glucose or DMEM with no glucose (Gibco 11966-025) supplemented with 10 mM galactose at 9,000 cells/well in 96 well plates (Corning costar 3610). 24 hrs later, compounds, in DMSO, were added at various concentrations to a final 0.1% DMSO for all wells. Following 20 hours of incubation with compound, all wells had their growth medium replaced with DMEM containing 25 mM of glucose followed by the addition of Promega CellTiter-Glo® reagent as per manufacturer's instructions. After a 15 minute incubation cellular ATP levels were read out using a Promega GloMax® DiscoverMicroplate Reader.
The ratio of relative CellTiter-Glo values from cells grown in galactose to cells grown in glucose was determined (gal/glc ratio). The gal/glc ratio vs concentration is then graphed, and non-linear regression is used to find the highest concentration of MTK compound at which gal/glc>0.80 (the “highest mito-safe dose”, or IC20). The Mito-Safety Index in Table 2 is equal to the highest mito-safe dose divided by the mt-Keima EC50 dose.

C[C@@H]1CN([C@H]2COc3cc(F)ccc3[C@@H]2Nc2ncnc3[nH]c(C(F)(F)F)cc23)CCO1
EC50 [1]: 130 nM | MNTC ([2]; no FO, safe means DAPI + < 20%, read-out: Highest safe dose (cytotoxicity; no FO; safe means DAPI+ < 20%)): 21.9 µM | cytotoxicity ([2]; with 1 μM FCCP/oligomycin (FO), read-out: Max % death with 1 μM FO): 29.6% | selectivity ratio ([3]; highest mito-safe dose divided by the mt-Keima EC50 dose, read-out: Mito-Safety Index (highest safe dose/EC50)): 135 | IC20 at 20 h ([3]; mitotox or cytotox, highest concentration at which gal/glc > 0.80 (IC20), 20 hours, read-out: Highest safe dose (mitotox or cytotox)): 17.3 µM
